Substitutions are numbered along the chain they refer to.
Experiments:
[1] = system: MGL (rat brain homogenate); test: 2-AG accumulation assay in rat brain homogenate; format: biochemical; conditions: compound 1 μM, percent of vehicle 2-AG accumulation
In short: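 Rat brain homogenate was incubated with compound for 15 min at 37° C., after which CaCl2 was added to a final concentration of 10 mM and incubation continued for 15 min at 37° C. in 5 mL total. Reactions were stopped with 6 mL of 2:1 chloroform/methanol, and 2-AG accumulated in the organic phase was quantified by HPLC/MS.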

[2] = molecular target: T1, purified wild type MGL (wt-MGLL 6H-11-313) (Homo sapiens, UniProt Q99685); test: MGL enzyme activity assay (4MU-B cleavage), wild type MGL; format: biochemical; conditions: wild type MGL 5 nM, 4MU-B 10 μM, 37° C.; read-out: MGL wild type inh IC50
T1 construct: purified wild type MGL (wt-MGLL 6H-11-313)
T1 sequence (Q99685 1-303): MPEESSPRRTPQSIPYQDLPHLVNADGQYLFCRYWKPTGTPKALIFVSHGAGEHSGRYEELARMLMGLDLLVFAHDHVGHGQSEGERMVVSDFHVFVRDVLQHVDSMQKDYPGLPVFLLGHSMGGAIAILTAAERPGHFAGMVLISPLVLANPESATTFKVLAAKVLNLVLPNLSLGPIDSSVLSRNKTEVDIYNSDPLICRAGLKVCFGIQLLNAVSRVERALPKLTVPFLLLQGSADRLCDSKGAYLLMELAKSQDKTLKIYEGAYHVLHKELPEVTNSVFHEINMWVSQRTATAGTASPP
In short: (§1)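 Enzyme in 20 mM PIPES pH 7.0, 150 mM NaCl, 0.001% Tween 20 with 4MU-B at 10 μM final and MGL at 5 nM final; compounds 17 to 0.0003 μM final, enzyme added last. Fluorescence (ex 335/em 440 nm) followed at 37° C for 5 min; IC50 from fit of fractional activity versus inhibitor concentration.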

[3] = molecular target: T2, purified mutant MGL (mut-MGLL 11-313 L179S L186S) (Homo sapiens, UniProt Q99685, L169S/L176S); test: MGL enzyme activity assay (4MU-B cleavage), mutant MGL; format: biochemical; conditions: mutant MGL 5 nM, 4MU-B 10 μM, 37° C.; read-out: MGL mutant inh IC50
T2 construct: purified mutant MGL (mut-MGLL 11-313 L179S L186S)
T2 sequence (Q99685 1-303 L169S/L176S): T1 sequence (Q99685 1-303) with L169S, L176S
In short: as §1

mutant MGL = molecular target: T3, mutant MGL (Homo sapiens, UniProt Q99685, L169S/L176S); test: MGL ThermoFluor assay - mutant; format: binding; conditions: qNMR-corrected compound concentration; read-out: MGL mutant ThermoFluor qKd
T3 construct: purified mutant MGL (mut-MGLL 11-313 L179S L186S)
T3 sequence (Q99685 1-303 L169S/L176S): T1 sequence (Q99685 1-303) with L169S, L176S
Experimental: The ThermoFluor (TF) assay is a 384-well plate-based binding assay that measures thermal stability of proteins^1,2. The experiments were carried out using instruments available from Johnson & Johnson Pharmaceutical Research & Development, LLC. TF dye used in all experiments was 1,8-ANS (Invitrogen: A-47). Final TF assay conditions used for MGL studies were 0.07 mg/ml of mutant MGL, 100 μM ANS, 200 mM NaCl, 0.001% Tween-20 in 50 mM PIPES (pH=7.0).
Screening compound plates contained 100% DMSO compound solutions at a single concentration. For follow-up concentration-response studies, compounds were arranged in a pre-dispensed plate (Greiner Bio-one: 781280), wherein compounds were serially diluted in 100% DMSO across 11 columns within a series. Columns 12 and 24 were used as DMSO reference and contained no compound. For both single and multiple compound concentration-response experiments, the compound aliquots (46 nL) were robotically predispensed directly into 384-well black assay plates (Abgene: TF-0384/k) using the Hummingbird liquid handler. Following compound dispension, protein and dye solutions were added to achieve the final assay volume of 3 μL. The assay solutions were overlayed with 1 μL of silicone oil (Fluka, type DC 200: 85411) to prevent evaporation.
Bar-coded assay plates were robotically loaded onto a thermostatically controlled PCR-type thermal block and then heated from 40 to 90° C. degrees at a ramp-rate of 1° C./min for all experiments. Fluorescence was measured by continuous illumination with UV light (Hamamatsu LC6), supplied via fiber optics and filtered through a band-pass filter (380-400 nm; >6 OD cutoff). Fluorescence emission of the entire 384-well plate was detected by measuring light intensity using a CCD camera (Sensys, Roper Scientific) filtered to detect 500±25 nm, resulting in simultaneous and independent readings of all 384 wells. A single image with 20-sec exposure time was collected at each temperature, and the sum of the pixel intensity in a given area of the assay plate was recorded vs temperature and fit to standard equations to yield the Tm^1. • 1. Pantoliano, M. W., Petrella, E. C., Kwasnoski, J. D., Lobanov, V. S., Myslik, J., Graf, E., Carver, T., Asel, E., Springer, B. A., Lane, P., and Salemme, F. R. (2001) J Biomol Screen 6, 429-40. • 2. Matulis, D., Kranz, J. K., Salemme, F. R., and Todd, M. J. (2005) Biochemistry 44, 5258-66.
The Kd values for certain compounds of Formula (I) were determined from a fit of the equation to the concentration-response plot of the fractional activity as a function of […]. For some experiments, quantitative NMR spectroscopy (qNMR) was used to measure concentration of the initial 100% DMSO compound solutions and, using the same fitting method, qKd values were determined.

SMILES | Rat Brain 2AG % VehCntrl (%) @1 μM [1] [%] | IC50 [2] [nM] | IC50 [3] [nM] | Kd (mutant MGL) [nM]
O=C(c1ccc(-c2cccc(C(F)(F)F)c2)cc1)N1CC(NC2CN(C(=O)c3ccccc3)CC2F)C1 (centres unmarked) [Cpd 59, (3-((1-Benzoyl-4-fluoropyrrolidin-3-yl)amino)azetidin-1-yl)(3′-(trifluoromethyl)-[1,1′-biphenyl]-4-yl)methanone] | 389 | 41.4 | < 5 | –
Cn1cc(-c2ccccc2)c2ccc(C(=O)N3CC(N[C@H]4CCN(C(=O)c5ccccc5)C4)C3)cc21 [Cpd 64, (3S)-N-{1-[(1-Methyl-3-phenyl-1H-indol-6-yl)carbonyl]azetidin-3-yl}-1-(phenylcarbonyl)pyrrolidin-3-amine] | 182 | 70.9 | 39.5 | –
O=C(c1ccc2c(-c3cccc(F)c3)c[nH]c2c1)N1CC(N[C@H]2CCN(C(=O)c3nccs3)C2)C1 [Cpd 202, (3S)-N-(1-{[3-(3-Fluorophenyl)-1H-indol-6-yl]carbonyl}azetidin-3-yl)-1-(1,3-thiazol-2-ylcarbonyl)pyrrolidin-3-amine] | 363 | 11 | – | 56.3
O=C(c1ccc2c(-c3cccc(F)c3)c[nH]c2c1)N1CC(N[C@H]2CCN(C(=O)c3cscn3)C2)C1 [Cpd 203, (3S)-N-(1-{[3-(3-Fluorophenyl)-1H-indol-6-yl]carbonyl}azetidin-3-yl)-1-(1,3-thiazol-4-ylcarbonyl)pyrrolidin-3-amine] | 238 | 50.4 | – | 264
O=C(c1ccc2c(-c3cccc(F)c3)c[nH]c2c1)N1CC(N[C@H]2CCN(C(=O)c3ccccc3)C2)C1 [Cpd 204, (3S)-N-(1-{[3-(3-Fluorophenyl)-1H-indol-6-yl]carbonyl}azetidin-3-yl)-1-(phenylcarbonyl)pyrrolidin-3-amine] | – | 344 | – | 186
Cn1cc(-c2cccc(F)c2)c2ccc(C(=O)N3CC(N[C@H]4CCN(C(=O)c5nccs5)C4)C3)cc21 [Cpd 205, (3S)-N-(1-{[3-(3-Fluorophenyl)-1-methyl-1H-indol-6-yl]carbonyl}azetidin-3-yl)-1-(1,3-thiazol-2-ylcarbonyl)pyrrolidin-3-amine] | 446 | < 5 | – | 21.4
Cn1cc(-c2cccc(F)c2)c2ccc(C(=O)N3CC(N[C@H]4CCN(C(=O)c5cscn5)C4)C3)cc21 [Cpd 206, (3S)-N-(1-{[3-(3-Fluorophenyl)-1-methyl-1H-indol-6-yl]carbonyl}azetidin-3-yl)-1-(1,3-thiazol-4-ylcarbonyl)pyrrolidin-3-amine] | 267 | 81 | – | 122
Cn1cc(-c2cccc(F)c2)c2ccc(C(=O)N3CC(N[C@H]4CCN(C(=O)c5ccccc5)C4)C3)cc21 [Cpd 207, (3S)-N-(1-{[3-(3-Fluorophenyl)-1-methyl-1H-indol-6-yl]carbonyl}azetidin-3-yl)-1-(phenylcarbonyl)pyrrolidin-3-amine] | 238 | 63.9 | – | 100
O=C(c1ccc2c(ccn2CC(F)F)c1)N1CC(N[C@H]2CCN(C(=O)c3nccs3)C2)C1 [Cpd 213, (3S)-N-(1-{[1-(2,2-Difluoroethyl)-1H-indol-5-yl]carbonyl}azetidin-3-yl)-1-(1,3-thiazol-2-ylcarbonyl)pyrrolidin-3-amine] | – | 1390 | – | 963
O=C(c1cscn1)N1CC[C@H](NC2CN(C(=O)c3cccc4c3ccn4-c3ccc(F)cc3)C2)C1 [Cpd 215, (3S)-N-(1-{[1-(4-Fluorophenyl)-1H-indol-4-yl]carbonyl}azetidin-3-yl)-1-(1,3-thiazol-4-ylcarbonyl)pyrrolidin-3-amine] | – | 668 | – | 1440
O=C(c1cscn1)N1CC[C@H](NC2CN(C(=O)c3cccc4c3CCN4c3ccc(F)cc3)C2)C1 [Cpd 217, (3S)-N-(1-{[1-(4-Fluorophenyl)-2,3-dihydro-1H-indol-4-yl]carbonyl}azetidin-3-yl)-1-(1,3-thiazol-4-ylcarbonyl)pyrrolidin-3-amine] | – | 723 | – | 1960
O=C(c1nccs1)N1CC[C@H](NC2CN(C(=O)c3cn(-c4cccc(F)c4)c4ccccc34)C2)C1 [Cpd 218, (3S)-N-(1-{[1-(3-Fluorophenyl)-1H-indol-3-yl]carbonyl}azetidin-3-yl)-1-(1,3-thiazol-2-ylcarbonyl)pyrrolidin-3-amine] | – | 1890 | – | 3450
O=C(c1nccs1)N1CC[C@H](NC2CN(C(=O)c3cn(-c4ccc(F)cc4)c4ccccc34)C2)C1 [Cpd 219, (3S)-N-(1-{[1-(4-Fluorophenyl)-1H-indol-3-yl]carbonyl}azetidin-3-yl)-1-(1,3-thiazol-2-ylcarbonyl)pyrrolidin-3-amine] | – | 4980 | – | 4980
CN(C(=O)Cn1ccc2cc(C(=O)N3CC(N[C@H]4CCN(C(=O)c5nccs5)C4)C3)ccc21)c1ccccc1 [Cpd 222, N-Methyl-N-phenyl-2-{5-[(3-{[(3S)-1-(1,3-thiazol-2-ylcarbonyl)pyrrolidin-3-yl]amino}azetidin-1-yl)carbonyl]-1H-indol-1-yl}acetamide] | – | 1680 | – | 3240
O=C(c1nccs1)N1CC[C@H](NC2CN(C(=O)c3ccc4c(ccn4-c4ccc(F)cc4)c3Cl)C2)C1 [Cpd 223, (3S)-N-(1-{[4-Chloro-1-(4-fluorophenyl)-1H-indol-5-yl]carbonyl}azetidin-3-yl)-1-(1,3-thiazol-2-ylcarbonyl)pyrrolidin-3-amine] | – | 14 | – | 143
Cc1cc2c(ccn2-c2ccc(F)cc2)cc1C(=O)N1CC(N[C@H]2CCN(C(=O)c3nccs3)C2)C1 [Cpd 224, (3S)-N-(1-{[1-(4-Fluorophenyl)-6-methyl-1H-indol-5-yl]carbonyl}azetidin-3-yl)-1-(1,3-thiazol-2-ylcarbonyl)pyrrolidin-3-amine] | – | 224 | – | 218
O=C(c1nccs1)N1CC[C@H](NC2CN(C(=O)c3cc4ccn(-c5ccc(F)cc5)c4cc3Cl)C2)C1 [Cpd 225, (3S)-N-(1-{[6-Chloro-1-(4-fluorophenyl)-1H-indol-5-yl]carbonyl}azetidin-3-yl)-1-(1,3-thiazol-2-ylcarbonyl)pyrrolidin-3-amine] | – | 39.2 | – | 102
